Here are results for 26 compounds from US11827628B2, “Compositions and methods for inhibition of the JAK pathway” (Rigel Pharmaceuticals, Inc., priority 2005, dated 2023).

Each structure is given as a SMILES string. Counter-ions that a name gives are not always drawn.

The subject of the first test is IL-4 stimulated expression of CD23 in human Ramos B cells (JAK-1 and JAK-3). Description: Assay for Ramos B-Cell Line Stimulated with IL-4 (CD23 upregulation, FACS). Format: cell-based. As to conditions: Homo sapiens, Ramos, Ramos B cells stimulated with IL-4, CD23 expression by FACS; read-out: IC50, Example 41. From the text: One means of assaying for such inhibition is detection of the effect of the 2,4-substituted pyrimidinediamine compounds on the upregulation of downstream gene products. In the Ramos/IL4 assay, B-cells are stimulated with the cytokine Interleukin-4 (IL-4) leading to the activation of the JAK/Stat pathway through phosphorylation of the JAK family kinases, JAK1 and JAK3, which in turn phosphorylate and activate the transcription factor Stat-6. […] To study the effect of inhibitors (e.g., the 2,4-substituted pyrimindinediamine compounds described herein) on the JAK1 and JAK3 kinases, human Ramos B cells are stimulated with human IL-4. Twenty to 24 hours post stimulation, cells are stained for upregulation of CD23 and analyzed using flow cytometry (FACS). […] An exemplary assay of this type is described in greater detail in Example 41
B-cells stimulated with cytokine Interleukin-4 (IL-4) activate the JAK/Stat pathway through phosphorylation of the JAK family kinases, JAK-1 and JAK-3, which in turn phosphorylate and activate the transcription factor Stat-6. […] To study the effect of inhibitors on the JAK family kinases, human Ramos B cells are stimulated with human IL-4.
The Ramos B-cell line was acquired from ATCC (ATCC Catalog No. CRL-1596). The cells were cultured in RPMI 1640 (Cellgro, MediaTech, Inc., Herndon, VA, Cat No. 10-040-CM) with 10% fetal bovine serum (FBS), heat inactivated (JRH Biosciences, Inc, Lenexa, Kansas, Cat No. 12106-500M) according to ATCC propagation protocol. Cells were maintained at a density of 3.5×10^5. The day before the experiment, Ramos B-cells were diluted to 3.5×10^5 cells/mL to ensure that they were in a logarithmic growth phase.
Cells were spun down and suspended in RPMI with 5% serum. 5×10^4 cells were used per point in a 96-well tissue culture plate. Cells were pre-incubated with compound or DMSO (Sigma-Aldrich, St. Louis, MO, Cat No. D2650) vehicle control for 1 hour in a 37° C. incubator. Cells were then stimulated with IL-4 (Peprotech Inc., Rocky Hill, NJ, Cat No. 200-04) for a final concentration of 50 units/mL for 20-24 hours. Cells were then spun down and stained with anti-CD23-PE(BD Pharmingen, San Diego, CA, Cat No. 555711) and analyzed by FACS. Detection was performed using a BD LSR I System Flow Cytometer, purchased from Becton Dickinson Biosciences of San Jose, California The IC50 calculated based on the results of this assay are provided in TABLE XII.
In general terms: A flow cytometer gives signals particle by particle.
As for `CCN(CC)S(=O)(=O)c1ccc(OC)c(Nc2nc(Nc3ccc(Cl)c(Cl)c3)cc(C(=O)OC)n2)c1` [Compound X-1, 6-carbonylmethoxy-N4-(3,4-dichlorophenyl)-N2-(3-N,N-diethylaminosulfonyl-6-methoxyphenyl)-2,4-pyrimidinediamine], the IC50 stood at 8250 nM.

Regarding `CCN(CC)S(=O)(=O)c1ccc(OC)c(Nc2nc(Nc3ccc4c(c3)NC(=O)C(C)(C)O4)cc(C(=O)OC)n2)c1` [Compound X-2], the IC50 was 1840 nM.

Staying with this test, now noted: Homo sapiens, Ramos, Ramos B-cell line stimulated with IL-4; CD23 expression by FACS; read-out: IC50, Example 41.
With `NS(=O)(=O)c1ccc(Nc2ncc(F)c(Nc3ccc(OCC(=O)N4CCOCC4)cc3)n2)cc1` [Compound I-210, N2-(4-Aminosulfonylphenyl)-5-fluoro-N4-[4-(2-morpholin-4-yl-2-oxo-ethoxy)phenyl]-2,4-pyrimidinediamine], the IC50 worked out at 866 nM.

Turning to `NS(=O)(=O)c1cccc(Nc2ncc(F)c(Nc3ccc(OCC(=O)N4CCOCC4)cc3)n2)c1` [Compound I-211, N2-(3-Aminosulfonylphenyl)-5-fluoro-N4-[4-(2-morpholin-4-yl-2-oxo-ethoxy)phenyl]-2,4-pyrimidinediamine], the IC50 turned out to be 1050 nM.

Turning to `Cc1ccc(Nc2ncc(F)c(Nc3ccc(OCC(=O)N4CCOCC4)cc3)n2)cc1S(N)(=O)=O` [Compound I-212, N2-(3-Aminosulfonyl-4-methylphenyl)-5-fluoro-N4-[4-(2-morpholin-4-yl-2-oxo-ethoxy)phenyl]-2,4-pyrimidinediamine], the IC50 worked out at 758 nM.

In the case of `CCC(=O)NS(=O)(=O)c1cc(Nc2ncc(F)c(Nc3ccc(OCC(=O)OC)cc3)n2)ccc1C` [Compound I-213, 5-Fluoro-N4-(4-methoxycarbonylmethoxyphenyl)-N2-(4-methyl-3-propionylaminosulfonylphenyl)-2,4-pyrimidinediamine], the IC50 is 11500 nM.

As to `Cc1cc(Nc2nc(Nc3ccc(C)c(S(N)(=O)=O)c3)ncc2F)ccc1OC1CCN(C)CC1` [II-5, N2-(3-Aminosulfonyl-4-methylphenyl)-5-fluoro-N4-{3-methyl-4-[(1-methylpiperidin-4-yl)oxy]phenyl}-2,4-pyrimidinediamine], the IC50 is 2210 nM.

The same test, now with this note: Ramos B cells stimulated with IL-4, CD23 expression by FACS; read-out: IC50, Example 41.
Take `Cc1ccc(Nc2ncc(F)c(Nc3ccc4c(c3)N(Cc3ccccn3)C(=O)CO4)n2)cc1S(N)(=O)=O` [Compound V-2, N2-(3-Aminosulphonyl-4-methylphenyl)-5-fluoro-N4-[3-oxo-4-(2-pyridylmethy)-benz[1,4]oxazin-6-yl]-2,4-pyrimidinediamine]: the IC50 was found to be 1180 nM.

Consider `Cc1ccc(Nc2ncc(F)c(Nc3ccc4sc(CCC#N)cc4c3)n2)cc1S(N)(=O)=O` [Compound V-16, N2-(3-Aminosulfonyl-4-methylphenyl)-N4-(2-cyanoethylene-benzothiophen-5-yl)-5-fluoro-2,4-pyrimidinediamine], for which the IC50 came out at 8370 nM.

Staying with this test, now noted: Ramos B-cell line stimulated with IL-4; CD23 expression by FACS; read-out: IC50, Example 41.
`Cc1ccc(Nc2ncc(F)c(Nc3ccc(OCc4n[nH]c(=O)[nH]4)cc3)n2)cc1S(N)(=O)=O` [Compound I-202, N2-(3-Aminosulfonyl-4-methylphenyl)-5-fluoro-N4-[4-(2,4-dihydro-3-oxo-1,2,4-triazol-5-yl)methyleneoxyphenyl]-2,4-pyrimidinediamine]: the IC50 was 3080 nM.

In the case of `NS(=O)(=O)c1cccc(Nc2ncc(F)c(Nc3ccc(OCCN4CCOCC4)cc3)n2)c1` [Compound I-206], the IC50 turned out to be 726 nM.

As to `Cc1ccc(Nc2nc(Nc3cccc(S(N)(=O)=O)c3)ncc2F)cc1OCC(=O)N1CCOCC1` [Compound I-208, N2-(3-Aminosulfonylphenyl)-5-fluoro-N4-[4-methyl-3-(2-morpholinocarbonylmethyleneoxy)phenyl]-2,4-pyrimidinediamine], the IC50 is 1400 nM.

With `COC(=O)CNS(=O)(=O)c1cccc(Nc2ncc(F)c(Nc3ccc(OCc4cc(C)on4)cc3)n2)c1` [Compound I-215, 5-Fluoro-N2-[3-(N-methoxycarbonylmethylene)aminosulfonylphenyl]-N4-[4-(5-methylisoxazol-3-yl)methyleneoxyphenyl]-2,4-pyrimidinediamine], the IC50 was 976 nM.

Turning to `Cc1cc(COc2ccc(N(C)c3nc(Nc4ccc(C)c(S(N)(=O)=O)c4)ncc3F)cc2)no1` [Compound I-225, N2-(3-Aminosulfonyl-4-methylphenyl)-5-fluoro-N4-methyl-N4-[4-(5-methylisoxazol-3-yl)methyleneoxyphenyl]-2,4-pyrimidinediamine], the IC50 came to 700 nM.

With `Cc1cc(COc2ccc(N(C)c3nc(Nc4ccc(C)c(S(N)(=O)=O)c4)ncc3F)cc2F)no1` [Compound I-226, N2-(3-Aminosulfonyl-4-methylphenyl)-5-fluoro-N4-[3-fluoro-4-(5-methylisoxazol-3-yl)methyleneoxyphenyl]-N4-methyl-2,4-pyrimidinediamine], the IC50 is 498 nM.

For `COC(=O)CN(c1ccc(OCc2cc(C)on2)cc1)c1nc(Nc2ccc(C)c(S(N)(=O)=O)c2)ncc1F` [Compound I-227, N2-(3-Aminosulfonyl-4-methylphenyl)-5-fluoro-N4-methoxycarbonylmethyl-N4-[4-(5-methylisoxazol-3-yl)methyleneoxyphenyl]-2,4-pyrimidinediamine], the IC50 stood at 1480 nM.

Consider `CCC(=O)NS(=O)(=O)c1cc(Nc2ncc(F)c(Nc3ccc(OCc4cc(C)on4)cc3)n2)ccc1C` [Compound I-228, 5-Fluoro-N4-[4-(5-methylisoxazol-3-yl)methyleneoxyphenyl]-N2-(4-methyl-3-propionylaminosulfonylphenyl)-2,4-pyrimidinediamine], for which the IC50 worked out at 3810 nM.

On to `Cc1cc(COc2ccc(Nc3nc(Nc4ccc(C)c(S(=O)(=O)NC(=O)C(C)C)c4)ncc3F)cc2)no1` [Compound I-229, 5-Fluoro-N4-[4-(5-methylisoxazol-3-yl)methyleneoxyphenyl]-N2-(4-methyl-3-(2-methylpropionyl)aminosulfonylphenyl)-2,4-pyrimidinediamine], for which the IC50 turned out to be 3760 nM.

As for `CC(=O)NS(=O)(=O)c1cccc(Nc2ncc(F)c(Nc3ccc(OCc4cc(C)on4)cc3)n2)c1` [Compound I-232, N2-(3-Acetamidosulfonylphenyl)-5-fluoro-N4-[4-(5-methylisoxazol-3-yl)methyleneoxyphenyl]-2,4-pyrimidinediamine], the IC50 came to 1430 nM.

Regarding `CCC(=O)NS(=O)(=O)c1cccc(Nc2ncc(F)c(Nc3ccc(OCc4cc(C)on4)cc3)n2)c1` [Compound I-236], the IC50 amounted to 1980 nM.

For `Cc1cc(COc2ccc(Nc3nc(Nc4cccc(S(=O)(=O)NCc5oc(=O)oc5C(C)(C)C)c4)ncc3F)cc2)no1` [Compound I-250, N2-{3-[(N-5-t-Butyl-1,3-dioxolene-2-one-4-yl)methylene]aminosulfonylphenyl}-5-fluoro-N4-[4-(5-methylisoxazol-3-yl)methyleneoxyphenyl]-2,4-pyrimidinediamine], the IC50 worked out at 673 nM.

Regarding `CNS(=O)(=O)c1ccc(Nc2ncc(F)c(Nc3ccc(OC(F)(F)F)c(Cl)c3)n2)cc1OC` [Compound I-269, 5-fluoro-N2-(4-N-methylaminosulfonyl)-3-methoxyphenyl-N4-(4-trifluoromethoxy-3-chlorophenyl)-2,4-pyrimidinediamine], the IC50 was 917 nM.

Consider `CNS(=O)(=O)c1ccc(Nc2ncc(F)c(Nc3cccc(O)c3)n2)cc1OC` [Compound I-270], for which the IC50 came out at 780 nM.

With `Cc1nc(COc2ccc(Nc3nc(Nc4cccc(S(=O)(=O)N5CCN(C)CC5)c4)ncc3F)cc2)no1` [Compound I-274, 5-Fluoro-N4-[4-(5-methyl-1,2,4-oxadiazol-3-yl)methoxy]phenyl-N2-[3-(4-methylpiperazin-1-yl)sulfonyl]phenyl-2,4-pyrimidinediamine], the concentration for half-maximal inhibition (IC50) was determined as 1170 nM.

Still in this test, the particulars now being: Ramos B-cell line stimulated with IL-4; CD23 expression by FACS; sodium salt; read-out: IC50, Example 41.
`CCC(=O)NS(=O)(=O)c1cccc(Nc2ncc(F)c(Nc3ccc(OCc4cc(C)on4)cc3)n2)c1` [Compound I-242, 5-Fluoro-N4-[4-(5-methylisoxazol-3-yl)methyleneoxyphenyl]-N2-(3-N-propanamido)sulfonylphenyl)]-2,4-pyrimidinediamine sodium salt]: the 50% inhibitory concentration (IC50) amounted to 520 nM.

`CC(=O)NS(=O)(=O)c1cccc(Nc2ncc(F)c(Nc3ccc(OCc4cc(C)on4)cc3)n2)c1` [Compound I-243, N2-(3-Acetamidosulfonylphenyl)-5-fluoro-N4-[4-(5-methylisoxazol-3-yl)methyleneoxyphenyl]-2,4-pyrimidinediamine sodium salt]: the IC50 turned out to be 917 nM.

In general, IC50 refers to the concentration at which inhibition is half-maximal.
